Assay results published in publication PMC10211317, “Identification of ARUK2002821 as an isoform-selective PI5P4Kα inhibitor” (RSC Medicinal Chemistry, 2023).

Columns and labels:
Experiment in all cases: Premier Screen kinase panel (MRC PPU)
Type in all cases: biochemical
[1] = molecular target: SIK2 (Homo sapiens, UniProt Q9H0K1); details: SIK2 (Entrez SIK2), read-out: Residual activity (%)
Method: (§1) room temperature with shaking for 30 minutes. The kinase concentration in the eluates was measured by qPCR.
(§2) using ADP-GloTM assay at the MRC PPU International Centre for Kinase Profiling, University of Dundee.
(§3) Conducted by MRC PPU International Centre
(§4) Conducted by MRC PPU International Centre for […]

[2] = molecular target: IR (Homo sapiens, UniProt P06213); details: IR (Entrez INSR), read-out: Residual activity (%)
Method: as §1, §2, §3, §4

[3] = molecular target: CHK1 (Homo sapiens, UniProt O14757); details: CHK1 (Entrez CHEK1), read-out: Residual activity (%)
Method: as §1, §2, §3, §4

[4] = molecular target: MST3 (Homo sapiens, UniProt Q9Y6E0); details: MST3 (Entrez STK24), read-out: Residual activity (%)
Method: as §1, §2, §3, §4

[5] = molecular target: S6K1 (Homo sapiens, UniProt P23443); details: S6K1 (Entrez RPS6KB1), read-out: Residual activity (%)
Method: as §1, §2, §3, §4

[6] = molecular target: PINK (Tribolium castaneum, UniProt D6WMX4); details: PINK (Entrez PINK1), read-out: Residual activity (%)
Method: as §1, §2, §3, §4

[7] = molecular target: MINK1 (Homo sapiens, UniProt Q8N4C8); details: MINK1 (Entrez MINK1), read-out: Residual activity (%)
Method: as §1, §2, §3, §4

[8] = molecular target: SRPK1 (Homo sapiens, UniProt Q96SB4); details: SRPK1 (Entrez SRPK1), read-out: Residual activity (%)
Method: as §1, §2, §3, §4

[9] = molecular target: STK33 (Homo sapiens, UniProt Q9BYT3); details: STK33 (Entrez STK33), read-out: Residual activity (%)
Method: as §1, §2, §3, §4

[10] = molecular target: PKCa (Homo sapiens, UniProt P17252); details: PKCa (Entrez PRKCA), read-out: Residual activity (%)
Method: as §1, §2, §3, §4

[11] = molecular target: PKCz (Homo sapiens, UniProt Q05513); details: PKCz (Entrez PRKCZ), read-out: Residual activity (%)
Method: as §1, §2, §3, §4

[12] = molecular target: PKA (Homo sapiens, UniProt P17612); details: PKA (Entrez PRKAC), read-out: Residual activity (%)
Method: as §1, §2, §3, §4

[13] = molecular target: PRAK (Homo sapiens, UniProt Q8IW41); details: PRAK (Entrez MAPKAPK5), read-out: Residual activity (%)
Method: as §1, §2, §3, §4

[14] = molecular target: MST2 (Homo sapiens, UniProt Q13188); details: MST2 (Entrez STK3), read-out: Residual activity (%)
Method: as §1, §2, §3, §4

[15] = molecular target: PAK6 (Homo sapiens, UniProt Q9NQU5); details: PAK6 (Entrez PAK6), read-out: Residual activity (%)
Method: as §1, §2, §3, §4

[16] = molecular target: PIM1 (Homo sapiens, UniProt P11309); details: PIM1 (Entrez PIM1), read-out: Residual activity (%)
Method: as §1, §2, §3, §4

[17] = molecular target: CK2 (Homo sapiens, UniProt P68400); details: CK2 (Entrez CSNK2A1), read-out: Residual activity (%)
Method: as §1, §2, §3, §4

[18] = molecular target: Lck (Homo sapiens, UniProt P06239); details: Lck (Entrez LCK), read-out: Residual activity (%)
Method: as §1, §2, §3, §4

[19] = molecular target: ERK8 (Homo sapiens, UniProt Q8TD08); details: ERK8 (Entrez MAPK15), read-out: Residual activity (%)
Method: as §1, §2, §3, §4

[20] = molecular target: YES1 (Homo sapiens, UniProt P07947); details: YES1 (Entrez YES1), read-out: Residual activity (%)
Method: as §1, §2, §3, §4

[21] = molecular target: ZAP70 (Homo sapiens, UniProt P43403); details: ZAP70 (Entrez ZAP70), read-out: Residual activity (%)
Method: as §1, §2, §3, §4

[22] = molecular target: MARK1 (Homo sapiens, UniProt Q9P0L2); details: MARK1 (Entrez MARK1), read-out: Residual activity (%)
Method: as §1, §2, §3, §4

[23] = molecular target: EPH-B1 (Homo sapiens, UniProt P54762); details: EPH-B1 (Entrez EPHB1), read-out: Residual activity (%)
Method: as §1, §2, §3, §4

[24] = molecular target: HIPK2 (Homo sapiens, UniProt Q9H2X6); details: HIPK2 (Entrez HIPK2), read-out: Residual activity (%)
Method: as §1, §2, §3, §4

[25] = molecular target: ASK1 (Homo sapiens, UniProt Q99683); details: ASK1 (Entrez MAP3K5), read-out: Residual activity (%)
Method: as §1, §2, §3, §4

[26] = molecular target: JAK3 (Homo sapiens, UniProt P52333); details: JAK3 (Entrez JAK3), read-out: Residual activity (%)
Method: as §1, §2, §3, §4

[27] = molecular target: TESK1 (Homo sapiens, UniProt Q15569); details: TESK1 (Entrez TESK1), read-out: Residual activity (%)
Method: as §1, §2, §3, §4

[28] = molecular target: TrkA (Homo sapiens, UniProt P04629); details: TrkA (Entrez NTRK1), read-out: Residual activity (%)
Method: as §1, §2, §3, §4

[29] = molecular target: EF2K (Homo sapiens, UniProt O00418); details: EF2K (Entrez EEF2K), read-out: Residual activity (%)
Method: as §1, §2, §3, §4

[30] = molecular target: CDK9-Cyclin T1 (Homo sapiens, UniProt P50750); details: CDK9-Cyclin T1 (Entrez CDK9 + CCNT1), read-out: Residual activity (%)
Method: as §1, §2, §3, §4

[31] = molecular target: MARK3 (Homo sapiens, UniProt P27448); details: MARK3 (Entrez MARK3), read-out: Residual activity (%)
Method: as §1, §2, §3, §4

Sequence of ZAP70 (P43403 whole entry): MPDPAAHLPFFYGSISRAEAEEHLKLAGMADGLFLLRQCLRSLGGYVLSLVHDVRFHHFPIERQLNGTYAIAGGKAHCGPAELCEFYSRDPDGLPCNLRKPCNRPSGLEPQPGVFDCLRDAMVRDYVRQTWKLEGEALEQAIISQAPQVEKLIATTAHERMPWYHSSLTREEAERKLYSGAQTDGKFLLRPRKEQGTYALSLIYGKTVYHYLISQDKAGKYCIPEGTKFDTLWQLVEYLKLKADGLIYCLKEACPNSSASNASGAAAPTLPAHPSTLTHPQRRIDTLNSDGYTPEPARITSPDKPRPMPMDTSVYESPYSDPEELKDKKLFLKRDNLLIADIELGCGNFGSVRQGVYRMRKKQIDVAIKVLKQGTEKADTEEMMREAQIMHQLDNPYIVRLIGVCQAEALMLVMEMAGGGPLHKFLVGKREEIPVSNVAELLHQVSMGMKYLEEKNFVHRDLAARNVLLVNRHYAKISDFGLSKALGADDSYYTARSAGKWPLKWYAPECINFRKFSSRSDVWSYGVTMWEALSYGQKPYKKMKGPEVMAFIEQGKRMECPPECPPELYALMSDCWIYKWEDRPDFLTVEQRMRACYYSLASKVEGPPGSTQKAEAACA
Sequence of PRAK (Q8IW41 whole entry): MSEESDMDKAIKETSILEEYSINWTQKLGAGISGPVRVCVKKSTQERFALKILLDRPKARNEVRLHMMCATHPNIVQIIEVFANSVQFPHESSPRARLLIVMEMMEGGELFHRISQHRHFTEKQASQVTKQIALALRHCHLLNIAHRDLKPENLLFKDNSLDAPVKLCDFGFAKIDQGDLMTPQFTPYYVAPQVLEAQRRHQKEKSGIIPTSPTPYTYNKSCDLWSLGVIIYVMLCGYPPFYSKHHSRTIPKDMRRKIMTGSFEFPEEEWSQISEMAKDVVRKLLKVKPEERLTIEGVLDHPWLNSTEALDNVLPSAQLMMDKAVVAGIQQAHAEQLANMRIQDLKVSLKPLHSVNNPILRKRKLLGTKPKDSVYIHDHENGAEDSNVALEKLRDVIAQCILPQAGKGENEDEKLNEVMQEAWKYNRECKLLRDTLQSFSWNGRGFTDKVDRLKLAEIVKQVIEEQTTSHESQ
Sequence of S6K1 (P23443 whole entry): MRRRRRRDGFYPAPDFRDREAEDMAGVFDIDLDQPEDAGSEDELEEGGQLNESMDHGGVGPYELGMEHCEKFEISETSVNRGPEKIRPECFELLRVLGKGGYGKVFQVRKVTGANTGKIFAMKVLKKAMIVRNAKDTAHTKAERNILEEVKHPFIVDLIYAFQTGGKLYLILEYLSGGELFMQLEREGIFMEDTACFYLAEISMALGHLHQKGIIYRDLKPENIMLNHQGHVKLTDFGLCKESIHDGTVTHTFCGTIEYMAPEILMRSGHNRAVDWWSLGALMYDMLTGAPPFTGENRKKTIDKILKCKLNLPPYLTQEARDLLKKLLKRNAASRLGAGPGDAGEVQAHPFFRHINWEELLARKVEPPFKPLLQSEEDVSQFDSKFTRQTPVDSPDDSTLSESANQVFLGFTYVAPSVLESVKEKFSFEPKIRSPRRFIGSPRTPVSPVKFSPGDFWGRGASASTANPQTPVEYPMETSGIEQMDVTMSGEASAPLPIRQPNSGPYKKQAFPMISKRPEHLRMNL
Sequence of STK33 (Q9BYT3 whole entry): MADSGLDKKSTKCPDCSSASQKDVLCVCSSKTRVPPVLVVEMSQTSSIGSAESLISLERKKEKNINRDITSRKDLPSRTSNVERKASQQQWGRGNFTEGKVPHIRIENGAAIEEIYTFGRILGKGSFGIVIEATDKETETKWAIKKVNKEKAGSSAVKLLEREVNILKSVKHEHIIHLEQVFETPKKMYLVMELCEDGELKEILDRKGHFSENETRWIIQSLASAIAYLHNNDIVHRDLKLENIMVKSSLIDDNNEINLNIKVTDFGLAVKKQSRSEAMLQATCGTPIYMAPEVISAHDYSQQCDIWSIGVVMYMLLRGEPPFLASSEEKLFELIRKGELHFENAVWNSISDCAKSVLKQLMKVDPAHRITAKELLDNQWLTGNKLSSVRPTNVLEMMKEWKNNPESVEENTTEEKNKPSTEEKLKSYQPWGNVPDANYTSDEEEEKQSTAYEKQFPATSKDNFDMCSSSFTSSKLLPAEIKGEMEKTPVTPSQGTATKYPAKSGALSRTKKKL
Sequence of TESK1 (Q15569 whole entry): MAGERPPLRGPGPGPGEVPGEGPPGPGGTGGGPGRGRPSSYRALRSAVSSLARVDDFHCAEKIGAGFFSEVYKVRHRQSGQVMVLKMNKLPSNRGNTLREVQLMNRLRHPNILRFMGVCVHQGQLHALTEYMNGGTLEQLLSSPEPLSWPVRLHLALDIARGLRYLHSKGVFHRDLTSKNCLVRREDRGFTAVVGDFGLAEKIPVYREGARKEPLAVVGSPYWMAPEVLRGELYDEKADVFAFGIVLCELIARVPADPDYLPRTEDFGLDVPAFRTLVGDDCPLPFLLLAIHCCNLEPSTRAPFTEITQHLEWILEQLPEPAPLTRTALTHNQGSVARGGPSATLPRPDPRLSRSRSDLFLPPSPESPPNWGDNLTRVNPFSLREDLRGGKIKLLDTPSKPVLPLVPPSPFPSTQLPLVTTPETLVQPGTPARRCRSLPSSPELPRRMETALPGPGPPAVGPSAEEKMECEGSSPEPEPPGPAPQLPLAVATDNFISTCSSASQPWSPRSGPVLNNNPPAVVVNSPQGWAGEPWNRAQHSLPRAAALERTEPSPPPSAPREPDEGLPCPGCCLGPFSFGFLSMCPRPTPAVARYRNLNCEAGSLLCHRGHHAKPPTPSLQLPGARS
Sequence of PAK6 (Q9NQU5 whole entry): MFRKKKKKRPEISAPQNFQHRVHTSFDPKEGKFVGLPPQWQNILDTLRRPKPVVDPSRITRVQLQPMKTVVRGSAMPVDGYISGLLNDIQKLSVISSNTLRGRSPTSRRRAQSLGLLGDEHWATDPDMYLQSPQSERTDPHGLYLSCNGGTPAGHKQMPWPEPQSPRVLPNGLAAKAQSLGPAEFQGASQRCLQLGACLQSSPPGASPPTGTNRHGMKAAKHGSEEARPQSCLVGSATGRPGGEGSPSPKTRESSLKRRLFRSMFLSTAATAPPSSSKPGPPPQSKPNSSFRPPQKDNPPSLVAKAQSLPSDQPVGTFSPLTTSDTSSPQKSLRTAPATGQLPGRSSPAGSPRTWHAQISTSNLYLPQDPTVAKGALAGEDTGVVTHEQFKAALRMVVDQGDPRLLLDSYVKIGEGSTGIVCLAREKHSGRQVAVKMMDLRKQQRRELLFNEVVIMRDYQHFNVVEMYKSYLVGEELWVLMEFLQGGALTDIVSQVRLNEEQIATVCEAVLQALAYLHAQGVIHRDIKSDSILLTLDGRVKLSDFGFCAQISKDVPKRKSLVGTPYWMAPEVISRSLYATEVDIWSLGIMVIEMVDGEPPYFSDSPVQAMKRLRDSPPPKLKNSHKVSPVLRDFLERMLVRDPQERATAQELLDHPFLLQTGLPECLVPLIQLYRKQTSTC
Sequence of CDK9-Cyclin T1 (P50750 whole entry): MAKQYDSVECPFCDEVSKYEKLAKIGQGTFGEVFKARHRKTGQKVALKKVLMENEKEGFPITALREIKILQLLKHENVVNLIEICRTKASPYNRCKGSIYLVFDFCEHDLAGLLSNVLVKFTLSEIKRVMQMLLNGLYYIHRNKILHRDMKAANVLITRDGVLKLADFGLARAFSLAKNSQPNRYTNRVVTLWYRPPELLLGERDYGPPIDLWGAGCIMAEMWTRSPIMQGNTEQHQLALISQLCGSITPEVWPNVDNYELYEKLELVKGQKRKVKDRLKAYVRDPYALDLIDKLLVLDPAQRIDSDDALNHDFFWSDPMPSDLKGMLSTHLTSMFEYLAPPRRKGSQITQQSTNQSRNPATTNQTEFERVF
Sequence of CDK9-Cyclin T1 (O60563 whole entry partner): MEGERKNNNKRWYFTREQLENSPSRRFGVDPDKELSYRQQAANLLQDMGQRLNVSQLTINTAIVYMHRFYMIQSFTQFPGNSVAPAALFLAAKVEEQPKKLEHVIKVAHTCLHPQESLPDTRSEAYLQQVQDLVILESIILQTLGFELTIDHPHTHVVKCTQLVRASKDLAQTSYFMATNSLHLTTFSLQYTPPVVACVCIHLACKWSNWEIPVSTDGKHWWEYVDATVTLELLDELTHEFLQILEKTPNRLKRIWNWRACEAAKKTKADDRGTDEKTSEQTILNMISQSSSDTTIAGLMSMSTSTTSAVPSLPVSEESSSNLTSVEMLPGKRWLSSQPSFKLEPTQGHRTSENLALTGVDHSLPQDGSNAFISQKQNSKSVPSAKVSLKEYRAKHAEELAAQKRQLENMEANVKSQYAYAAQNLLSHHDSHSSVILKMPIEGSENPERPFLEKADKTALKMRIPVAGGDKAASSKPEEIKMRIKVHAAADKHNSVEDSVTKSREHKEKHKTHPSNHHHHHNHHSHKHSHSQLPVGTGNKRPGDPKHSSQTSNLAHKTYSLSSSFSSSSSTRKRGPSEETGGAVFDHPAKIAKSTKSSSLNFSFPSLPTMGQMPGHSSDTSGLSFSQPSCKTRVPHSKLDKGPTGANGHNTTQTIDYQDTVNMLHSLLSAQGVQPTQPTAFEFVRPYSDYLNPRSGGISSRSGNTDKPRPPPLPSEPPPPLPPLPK
Sequence of MST3 (Q9Y6E0 whole entry, species assumed): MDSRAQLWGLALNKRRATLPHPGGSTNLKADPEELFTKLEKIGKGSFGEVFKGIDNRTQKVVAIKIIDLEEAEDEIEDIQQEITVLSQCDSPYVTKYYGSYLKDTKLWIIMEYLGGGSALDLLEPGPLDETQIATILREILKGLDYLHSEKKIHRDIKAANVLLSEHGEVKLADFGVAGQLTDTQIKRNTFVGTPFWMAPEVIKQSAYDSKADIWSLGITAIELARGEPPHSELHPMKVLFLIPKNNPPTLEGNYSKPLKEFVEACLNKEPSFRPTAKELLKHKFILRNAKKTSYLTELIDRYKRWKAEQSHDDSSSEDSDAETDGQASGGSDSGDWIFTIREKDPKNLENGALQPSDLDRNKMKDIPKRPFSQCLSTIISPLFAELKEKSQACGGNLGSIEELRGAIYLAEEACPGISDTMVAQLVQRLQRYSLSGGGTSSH

`COc1ccc(Nc2ncnc3c2ccn3-c2ccc(C)c(C)c2)cc1Cl` [compound 36] showed a remaining activity at 1 µM [1] of 109%, a remaining activity at 1 µM [2] of 108% and a remaining activity at 1 µM [3] of 82%. The remaining activity at 1 µM [4] was 124%, the remaining activity at 1 µM [5] was 89% and the remaining activity at 1 µM [6] was 73%. It also gave a remaining activity at 1 µM [7] of 107%, a remaining activity at 1 µM [8] of 99% and a remaining activity at 1 µM [9] of 93%. It also gave a remaining activity at 1 µM [10] of 96%, a remaining activity at 1 µM [11] of 111% and a remaining activity at 1 µM [12] of 80%. It also gave a remaining activity at 1 µM [13] of 90%, a remaining activity at 1 µM [14] of 86% and a remaining activity at 1 µM [15] of 90%. It also gave a remaining activity at 1 µM [16] of 75%, a remaining activity at 1 µM [17] of 97% and a remaining activity at 1 µM [18] of 95%. The remaining activity at 1 µM [19] was 110%, the remaining activity at 1 µM [20] was 98% and the remaining activity at 1 µM [21] was 99%. It also gave a remaining activity at 1 µM [22] of 113%, a remaining activity at 1 µM [23] of 126% and a remaining activity at 1 µM [24] of 90%. For the same molecule, the remaining activity at 1 µM [25] was 107%, the remaining activity at 1 µM [26] was 63% and the remaining activity at 1 µM [27] was 88%. It also gave a remaining activity at 1 µM [28] of 85%, a remaining activity at 1 µM [29] of 85% and a remaining activity at 1 µM [30] of 94%. For the same molecule, the remaining activity at 1 µM [31] was 104%.
